Measurements taken from PubChem BioAssay AID1963436 (Molecular Pharmacology Branch, DTP, NCI, 2024).

Tested on: OVCAR-5 complex spheroid (HUVEC/MSC), viability % T/C
Test: Anticancer human tumor OVCAR-5 cell line growth inhibition [Asc];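 further: spheroids exposed to agents for 7 days before readout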;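 on viability, T/C: 100% = DMSO vehicle-treated wells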
Details: for IC50: curve of first compound; for viability, T/C: stronger effect = lower value
Outline: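 Tumor cells were grown as complex spheroids with human endothelial cells (HUVEC) and human mesenchymal stem cells as stroma. Agents were tested alone and in combination, in half-log steps down from the clinical Cmax, or from 10 microM where Cmax was unknown.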

[1] = second compound 0.1 µM, first compound 0.00316 µM
[2] = second compound 0.1 µM, first compound 0.01 µM
[3] = second compound 0.1 µM, first compound 0.0316 µM
[4] = second compound 0.1 µM, first compound 0.1 µM
[5] = second compound 0.316 µM, first compound 0.00316 µM
[6] = second compound 0.316 µM, first compound 0.01 µM
[7] = second compound 0.316 µM, first compound 0.0316 µM
[8] = second compound 0.316 µM, first compound 0.1 µM
[9] = second compound 1 µM, first compound 0.00316 µM
[10] = second compound 1 µM, first compound 0.01 µM
[11] = second compound 1 µM, first compound 0.0316 µM
[12] = second compound 1 µM, first compound 0.1 µM
[13] = second compound 3.16 µM, first compound 0.00316 µM
[14] = second compound 3.16 µM, first compound 0.01 µM
[15] = second compound 3.16 µM, first compound 0.0316 µM
[16] = second compound 3.16 µM, first compound 0.1 µM
[17] = second compound 10 µM, first compound 0.00316 µM
[18] = second compound 10 µM, first compound 0.01 µM
[19] = second compound 10 µM, first compound 0.0316 µM
[20] = second compound 10 µM, first compound 0.1 µM

| SMILES | IC50 (second compound 0.1 µM) | IC50 (second compound 0.316 µM) | IC50 (second compound 1 µM) | IC50 (second compound 3.16 µM) | IC50 (second compound 10 µM) | viability, T/C [1] | viability, T/C [2] | viability, T/C [3] | viability, T/C [4] | viability, T/C [5] | viability, T/C [6] | viability, T/C [7] | viability, T/C [8] | viability, T/C [9] | viability, T/C [10] | viability, T/C [11] | viability, T/C [12] | viability, T/C [13] | viability, T/C [14] | viability, T/C [15] | also measured |
| --- | --- | --- | --- | --- | --- | --- | --- | --- | --- | --- | --- | --- | --- | --- | --- | --- | --- | --- | --- | --- | --- |
| NC1CCC(NC2CC2c2ccccc2)CC1 (stereo not given) + Cc1c(S(C)(=O)=O)c(-c2cc(F)cc(N3CCN(c4ccc(NS(=O)(=O)c5ccc(NC(CCN6CCC(C(=O)OCCCP(=O)(O)O)CC6)CSc6ccccc6)c(S(=O)(=O)C(F)(F)F)c5)cc4)CC3)c2)c(-c2ccc(Cl)cc2)n1C(C)C | > 100 nM | > 100 nM | > 100 nM | > 100 nM | > 100 nM | 89.5% | 94.1% | 103% | 92.3% | 85% | 81.9% | 90.3% | 93.1% | 90.7% | 81% | 92.4% | 86.3% | 83.7% | 76% | 93.2% | viability, T/C (second compound 0.1 µM, first compound 0.000316 µM): 86%; viability, T/C (second compound 0.1 µM, first compound 0.001 µM): 103%; viability, T/C (second compound 0.316 µM, first compound 0.000316 µM): 87.9%; viability, T/C (second compound 0.316 µM, first compound 0.001 µM): 95.6%; viability, T/C (second compound 1 µM, first compound 0.000316 µM): 94.7%; viability, T/C (second compound 1 µM, first compound 0.001 µM): 94.2%; viability, T/C (second compound 3.16 µM, first compound 0.000316 µM): 94.9%; viability, T/C (second compound 3.16 µM, first compound 0.001 µM): 95.5%; viability, T/C [16]: 87.8%; viability, T/C (second compound 10 µM, first compound 0.000316 µM): 115%; viability, T/C (second compound 10 µM, first compound 0.001 µM): 110%; viability, T/C [17]: 120%; viability, T/C [18]: 107%; viability, T/C [19]: 104%; viability, T/C [20]: 112% |
| COc1c(OCCCN2CCOCC2)ccc2c3n(c(=NC(=O)c4cnc(N)nc4)nc12)CCN3 + Cc1c(S(C)(=O)=O)c(-c2cc(F)cc(N3CCN(c4ccc(NS(=O)(=O)c5ccc(NC(CCN6CCC(C(=O)OCCCP(=O)(O)O)CC6)CSc6ccccc6)c(S(=O)(=O)C(F)(F)F)c5)cc4)CC3)c2)c(-c2ccc(Cl)cc2)n1C(C)C | 28 nM | 18.1 nM | 17.9 nM | 15.4 nM | 17.7 nM | 81.8% | 73.3% | 46.5% | 22% | 74.7% | 63.4% | 37% | 20.3% | 68.8% | 65.4% | 35.3% | 10.8% | 64.5% | 63.7% | 29.7% | viability, T/C (second compound 0.1 µM, first compound 0.316 µM): 14.2%; viability, T/C (second compound 0.1 µM, first compound 1 µM): 5.21%; viability, T/C (second compound 0.316 µM, first compound 0.316 µM): 9.08%; viability, T/C (second compound 0.316 µM, first compound 1 µM): 2.87%; viability, T/C (second compound 1 µM, first compound 0.316 µM): 5.94%; viability, T/C (second compound 1 µM, first compound 1 µM): 2.46%; viability, T/C [16]: 10.2%; viability, T/C (second compound 3.16 µM, first compound 0.316 µM): 3.29%; viability, T/C (second compound 3.16 µM, first compound 1 µM): 1.07%; viability, T/C [17]: 86.5%; viability, T/C [18]: 68.7%; viability, T/C [19]: 31.2%; viability, T/C [20]: 7.93%; viability, T/C (second compound 10 µM, first compound 0.316 µM): 2.43%; viability, T/C (second compound 10 µM, first compound 1 µM): 1.35% |
